Source: US8008093B2, “Inhibition of Hsp27 phosphorylation for the treatment of blistering disorders” (The University of North Carolina at Chapel Hill, priority 2004, dated 2011)
“Also recorded” adds a separate entry of the source.

Tests used:
HSP27 = test: PV IgG induced HSP27 phosphorylation in keratinocytes, immunoblot; settings: preincubated 60 mins at 37° C. with inhibitor, then 25 μM PV IgG 30 mins
Method: Cells were preincubated for 60 minutes at 37° C. with the p38MAPK inhibitors SB202190 or SB203580, the protein kinase C inhibitors Calphostin C or H-7, or the phospholipase C inhibitor U-73122. PV IgG (25 μM) was then added and the cells were incubated for 30 mins at 37° C., and harvested in IEF lysis buffer. Extracts were separated on 10% SDS-PAGE gels followed by immunoblotting with anti-HSP27 and anti-phosphoHSP27 antibodies.
For inhibition studies, keratinocytes were preincubated for 60 mins at 37° C. with the p38MAPK inhibitors SB202190 (100 μM) or H-7 (10 μM), or the phospholipase C inhibitor U-73122 (4 μM), after which PV IgG was added to a final concentration of 25 μM, the cells incubated for 30 mins at 37° C., and harvested in IEF lysis buffer.

p38MAPK = p38MAPK phosphorylation in mouse skin extracts, immunoblot; format: in vivo; settings: PV IgG 1.0 mg IgG/g intradermally; SB202190 6.25 μg twice; skin biopsies after 18 hours
From the text: FIG. 7A is an immunoblot showing LDH control, PV IgG, and PV IgG+SB202190 first equally loaded on and separated by SDS-PAGE, transferred to PVDF, and immunoblotted with antibodies to p38MAPK, phospho-p38MAPK or lactate dehydrogenase (LDH) as a loading control. Blots were developed by ECL reaction (Amersham, Piscataway, N.J., United States of America).
FIG. 7B is a bar graph illustrating signal intensity from the ECL reaction for each band from the immunoblot of FIG. 7A, quantified with a GeneGnome™ scanner (Syngene Bio Imaging, Frederick, Md., United States of America) using GeneSnap™ software (n=3, S.D. shown by error bars).

neonatal C57BL/6J mice = test: Passive transfer PV mouse model, blister formation; format: in vivo
From the text: The passive transfer PV mouse model developed by Anhalt and Diaz (Anhalt, et al. (1992) New England Journal of Medicine 306, 1189-1196) was used to test the hypothesis that p38MAPK inhibitors can block blister formation in vivo. In this model, the IgG fraction from patients and control non-affected normal individuals was purified and passively transferred into neonatal mice (Anhalt, et al. (1992) New England Journal of Medicine 306, 1189-1196; Rock, et al. (1990) J of Clinical Investigation 85, 296-299).
For in vivo inhibitor studies, the mice were injected intradermally with PV and normal IgG (1.0 or 1.5 mg/gram body weight) as disclosed in Mascaro et al. (Clin Immunology & Immunopathology 85, 90-96 (1997)). The P38 MAPK inhibitors were administered intradermally in two doses. In the first dose, 6.25 μg SB202190 was administered two hours prior to intradermal injection of IgG. In the second dose, 6.25 μg SB202190 was mixed with PV or control IgG and injected intradermally. Each animal received a total inhibitor dose of 12.5 μg.

keratinocytes = test: Keratin and actin reorganization in keratinocytes, confocal microscopy; format: cell-based, human; settings: 25 μM PV IgG 6 hrs at 37° C.; SB202190 100 μM preincubated 60 mins
Method: FIGS. 5A-5C are data showing that PV IgG induced cytoskeletal reorganization can be prevented by inhibiting p38MAPK. […] Cells were stained with the indicated antibodies or fluorescein-phalloidin and analyzed by confocal microscopy.
At 37° C. Cells were fixed and stained with flourescein conjugated phalloidin (Molecular Probes, Eugene, Oreg., United States of America), pancytokeratin antibodies (clone AE1/AE3, Zymed, San Francisco, Calif., United States of America), or goat anti-human E-cadherin antibodies (R & D Systems, mc, Minneapolis, Minn., United States of America) as previously described (Hu et al., (2001) Experimental Nephrology 9, 156-164), followed by Cy2 and Cy3 conjugated secondary antibodies (Jackson Laboratories, West Grove, Pa., United States of America). Images were analyzed using a Leica SP2 AOBS confocal microscope (Leica, Bannockburn, Ill., United States of America) with an excitation wavelength of 488 nm and capture at 500-550 nm or an excitation wavelength of 561 nm and capture at 590-650 nm using a 63×objective with NA 1.4. Double labeled samples were checked for bleed though by turning off the longer wavelength laser and assaying for the absence of image. For 3 dimensional image reconstructions, serial sections were scanned at 0.244 μm and rendered using the program Volocity Version 3 (Improvision, Lexington, Mass., United States of America).

HSP25 = HSP25 phosphorylation in mouse skin extracts, 2D immunoblot; format: in vivo; settings: PV IgG 1.0 mg IgG/g intradermally; SB202190 6.25 μg twice; skin biopsies after 18 hours
Method: Skin biopsies were obtained after 18 hours of treatment and extracted in IEF lysis buffer.
FIG. 7C is an autoradiogram of an immunoblot showing cell extracts (30 μg) prepared and separated in the first dimension using 7 cm pH 4-7, non-linear IPGphor strips (Amersham Biosciences, Inc.) and in the second dimension by 10% SDS-PAGE followed by immunoblotting with antibodies to murine HSP25 using methods known in the art (see Berkowitz et al. (2005) J Biol Chem 280, 23778-23784). […] P values were calculated using student's T-test.

[1] = tested on: epidermal keratinocyte cell membranes; test: Direct immunofluorescence of perilesional skin for bound PV IgG; settings: direct immunofluorescence of mouse skin, PV IgG+SB202190 vs PV IgG
From the text: Perilesional skin biopsies were examined by direct immunofluorescence for the presence of PV IgG bound to the epidermal epithelium.

[2] = PV IgG intradermally, SB202190 two doses of 6.25 μg intradermally, after 18 hours
[3] = histology, PV IgG intradermally, SB202190 two doses of 6.25 μg intradermally, after 18 hours

COc1ccc2c(c1)CC[C@@H]1[C@@H]2CC[C@]2(C)[C@@H](NCCCCCCN3C(=O)C=CC3=O)CC[C@@H]12 [U-73122]
inhibition of PV IgG induced HSP27 phosphorylation (HSP27): No notable inhibition

Calphostin C
inhibition of PV IgG induced HSP27 phosphorylation (HSP27): No notable inhibition

Oc1ccc(-c2nc(-c3ccc(F)cc3)c(-c3ccncc3)[nH]2)cc1 [SB202190, 4-(4-Fluorophenyl)-2-(4-hydroxyphenyl)-5-(4-pyridyl)1H-imidazole]
p38MAPK phosphorylation in skin extracts (p38MAPK): prevented; also recorded: blocked | suprabasal acantholysis leading to blister formation (neonatal C57BL/6J mice; PV IgG 1 mg IgG/g body weight, skin biopsies, hematoxylin and eosin): blocked | Nikolsky's sign (neonatal C57BL/6J mice; PV IgG 1.5 mg IgG/gram body weight intradermally, examined 18 hours later): negative Nikolsky's sign | blister development, clinically and histologically (neonatal C57BL/6J mice; PV IgG 1.0 or 1.5 mg/gram body weight intradermally, SB202190 total 12.5 μg, after 18 hours): failed to develop blisters | Numbers of Mice with Nikolsky Sign: Nikolsky Negative (neonatal C57BL/6J mice; [2]): 11 | Numbers of Mice with Nikolsky Sign: Nikolsky Positive (neonatal C57BL/6J mice; [2]): 1 | Numbers of Mice with Suprabasilar Acantholysis: Blisters Present (neonatal C57BL/6J mice; [3]): 1 | Numbers of Mice with Suprabasilar Acantholysis: No Blisters (neonatal C57BL/6J mice; [3]): 11 | actin reorganization (phalloidin staining) (keratinocytes): similarly prevented; also recorded: inhibited | keratin filament retraction (keratinocytes): prevented | phosphorylation of the most negatively charged HSP25 isoform in skin extracts (HSP25): inhibited; also recorded: blocked | effect on binding of PV autoantibodies to epidermal keratinocyte cell surface [1]: did not prevent or alter the binding; also recorded: does not prevent binding

CC1CNCCN1S(=O)(=O)c1cccc2cnccc12 (stereo not drawn) [H-7]
inhibition of PV IgG induced HSP27 phosphorylation (HSP27): No notable inhibition
